The values that follow come from paper PMC4275348 (Molecular microbiology, 2014).

Numbering of substitutions follows the chain as printed.

What all share (type): cell-based, Vibrio harveyi
One experiment concerns the target T1, LuxN^H210Q (Vibrio campbellii, UniProt A7MRY4, H210Q).
T1 sequence (A7MRY4 1-849 H210Q): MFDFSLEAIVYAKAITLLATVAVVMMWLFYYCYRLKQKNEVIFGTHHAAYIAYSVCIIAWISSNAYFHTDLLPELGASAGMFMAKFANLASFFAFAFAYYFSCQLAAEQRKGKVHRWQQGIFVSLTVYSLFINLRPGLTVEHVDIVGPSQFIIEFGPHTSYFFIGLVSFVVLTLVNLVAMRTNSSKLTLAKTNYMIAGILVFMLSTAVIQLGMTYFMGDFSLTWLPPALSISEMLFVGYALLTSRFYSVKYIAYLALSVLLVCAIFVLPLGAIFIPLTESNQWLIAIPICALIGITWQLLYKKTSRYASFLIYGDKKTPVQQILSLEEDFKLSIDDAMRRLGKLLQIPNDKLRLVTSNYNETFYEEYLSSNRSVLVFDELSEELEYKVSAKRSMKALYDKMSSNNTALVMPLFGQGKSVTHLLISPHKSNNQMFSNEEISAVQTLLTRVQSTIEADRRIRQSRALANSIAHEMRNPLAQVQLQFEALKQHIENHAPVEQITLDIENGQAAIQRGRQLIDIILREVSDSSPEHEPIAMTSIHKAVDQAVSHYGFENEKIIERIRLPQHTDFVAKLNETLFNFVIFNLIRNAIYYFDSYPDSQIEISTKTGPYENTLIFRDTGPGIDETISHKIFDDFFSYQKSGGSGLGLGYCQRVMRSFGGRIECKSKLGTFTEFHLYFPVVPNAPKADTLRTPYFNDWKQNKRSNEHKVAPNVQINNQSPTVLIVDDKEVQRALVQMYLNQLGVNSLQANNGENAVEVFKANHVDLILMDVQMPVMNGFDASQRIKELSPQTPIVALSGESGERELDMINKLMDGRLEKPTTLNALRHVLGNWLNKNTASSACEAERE
The experiment is described as follows: Bioluminescence of V. harveyi XK006 carrying luxN H210Q. Conditions: 1 μM AHL.

The target in another experiment is T2, LuxN^H210N (Vibrio campbellii, UniProt A7MRY4, H210N).
T2 sequence (A7MRY4 1-849 H210N): T1 sequence (A7MRY4 1-849 H210Q) with Q210N
The experiment is described as follows: Bioluminescence of V. harveyi XK006 carrying luxN H210N. Conditions: dose-dependent light production.

The target of the next experiment is T3, luxN^T159I/Y193K (Vibrio campbellii, UniProt A7MRY4, N193K/T159I).
T3 sequence (A7MRY4 1-849 T159I/N193K): T1 sequence (A7MRY4 1-849 H210Q) with T159I, N193K, Q210H
The experiment is described as follows: Bioluminescence of V. harveyi XK006 carrying luxN T159I/Y193K.

The test system of the next experiment is Kin^off LuxN mutants. The experiment is described as follows: Bioluminescence of V. harveyi XK847 harboring Kin^off luxN alleles.

`C[C@@H](O)CC(=O)N[C@H]1CCOC1=O` [3OH-C4 HSL, N-((R)-3-hydroxybutanoyl)-L-homoserine lactone]: the “induction of light production” value on LuxN^H210Q is 50 fold. Also, on LuxN^H210N, the “less sensitivity than for the other two C4 AHLs (3O-C4 HSL, C4 HSL)” value is reported as 10 fold. Also, on luxN^T159I/Y193K, the “response (dose-dependent light production)” value is recorded as “most potent agonist”. Further, the “light production / detection” value with Kin^off LuxN mutants was “produced maximal light”.
